Assay results taken from article PMC12884772, “Macrophagic Sclerostin Loop2‐ApoER2 Interaction Required by Sclerostin for Cardiovascular Protective Action” (Advanced Science, 2025).

Tested on: mouse macrophages (RAW 264.7)
Assay: LPS‐induced inflammatory responses in mouse macrophages (RAW 264.7), siNC or siLrp8
Format: cell-based
Protocol: To determine whether the suppressive effects of sclerostin on inflammatory responses in macrophages were dependent on ApoER2 in vitro, PMA (100 ng/mL, 48 h)‐induced human differentiated macrophages (THP‐1 cells, Procell Life Science & Technology, CL‐0233) and mouse macrophages (RAW 264.7 cells, ATCC, TIB‐71) were utilized. Human differentiated macrophages or mouse macrophages were divided into 9 groups (n = 3 per group), respectively, including (1) siNC, (2) siNC + LPS, (3) siNC + LPS + SOST 500 nM or 250 nM, (4) siNC + LPS + SOST 1 µM or 500 nM, (5) siNC + LPS + SOST 2 µM or 1 µM, (6) siLrp8 + LPS + SOST 500 nM or 250 nM, (7) siLrp8 + LPS + SOST 1µM or 500 nM, (8) siLrp8 + LPS + SOST 2 µM or 1 µM, (9) siLrp8 + LPS. Cells in groups (6‐9) were transfected with siRNA targeting human/mouse Lrp8 (human siLrp8: Santa Cruz Biotechnology sc‐40097, mouse siLrp8: Santa Cruz Biotechnology sc‐40098), while cells in groups (1‐5) were transfected with empty vector as control (siNC). 24 h later, cells in group (3)/(6), (4)/(7), and (5)/(8) were treated with recombinant human or mouse sclerostin for 3 h at concentration of 500 nM or 250 nM, 1 µM or 500 nM, as well as 2 µM or 1 µM, respectively, while cells in groups (1), (2), and (9) were treated with vehicle. Then, cells in groups (2‐9) were treated with LPS (100 ng/mL or 1 µg/mL) for 18 h. All groups of cell lysates were collected for determining the mRNA expression levels of TNF‐α, MCP‐1, and IL‐10 (human or mouse, respectively) by RT‐PCR.^[ [34] ^] Cell mediums were collected for determining the protein expression/secretion levels of TNF‐α, MCP‐1, and IL‐10 (human or mouse, respectively) by ELISA.^[ [34] ^]
Total RNA was extracted from cells following the protocols of Trizol reagent (Invitrogen, 15 596 026). […] The relative gene expression levels were calculated using the 2^−ΔΔCt method with GAPDH as the reference gene.^[ [40] ^] […]

[1] = RAW 264.7, LPS 1 µg/mL 18 h, recombinant mouse sclerostin 250 nM-1 µM for 3 h, RT‐PCR and ELISA, n = 3

sclerostin: recombinant human/mouse full‐length sclerostin protein
mRNA expression and protein expression/secretion of IL‐10 [1]: promoted | mRNA expression and protein expression/secretion of TNF‐α and MCP‐1 [1]: inhibited | Effects of sclerostin on cytokine/chemokine expression/secretion upon Lrp8 silencing (RAW 264.7 with siLrp8, LPS 1 µg/mL 18 h): not detected
